Data taken from patent US20180110754A1, “CENICRIVIROC FOR THE TREATMENT OF FIBROSIS” (Tobira Therapeutics, Inc., priority 2015, published 2018).

Tests used:
[1] = From the text: Subjects with a history of HIV-2, hepatitis B and/or C, cirrhosis of the liver or any known active or chronic active liver disease were excluded from the study.
Most AEs were mild or moderate (Grade 1 or Grade 2). […] None of the Grade ≥3 AEs (preferred terms) were reported in more than 1 subject.

[2] = Study 202: ECG abnormalities and vital signs; format: in vivo, human; conditions: All CVC (N = 115); EFV (N = 28), through Week 48

O=C1Nc2ccc(Cl)cc2[C@@](C#CC2CC2)(C(F)(F)F)O1 [EFV, efavirenz, reference compound]
SAE: Suicidal ideation, n subjects ([1]; All CVC (N = 115), EFV (N = 28), through Week 48): 1 | Grade 3 or 4 AE: Suicidal ideation, n subjects ([1]; All CVC (N = 115), EFV (N = 28; Grade 4 event)): 1 | Deaths ([1]; EFV (N = 28)): 0 n | Grade 3 or 4 AE: Blood creatine phosphokinase increased, n subjects ([1]; human, in vivo, 48 week): 0 | Grade 3 or 4 AE: Cardiac disorders, n subjects ([1]; human, in vivo, 48 week): 0 | Grade 3 or 4 AE: Depression, n subjects ([1]; human, in vivo, 48 week): 1 | Grade 3 or 4 AE: Ear and labyrinth disorders, n subjects ([1]; human, in vivo, 48 week): 1 | Grade 3 or 4 AE: Investigations, n subjects ([1]; human, in vivo, 48 week): 1 | Grade 3 or 4 AE: Palpitations, n subjects ([1]; human, in vivo, 48 week): 0 | Grade 3 or 4 AE: Psychiatric disorders, n subjects ([1]; human, in vivo, 48 week): 1 | Grade 3 or 4 AE: Stress, n subjects ([1]; human, in vivo, 48 week): 0 | Grade 3 or 4 AE: Weight decreased, n subjects ([1]; human, in vivo, 48 week): 1 | AE Abnormal dreams, n subjects ([1]; human, in vivo, 48 weeks): 6 | AE Depression, n subjects ([1]; human, in vivo, 48 weeks): 3 | AE Diarrhoea, n subjects ([1]; human, in vivo, 48 weeks): 3 | AE Dizziness, n subjects ([1]; human, in vivo, 48 weeks): 8 | AE Fatigue, n subjects ([1]; human, in vivo, 48 weeks): 1 | AE Headache, n subjects ([1]; human, in vivo, 48 weeks): 0 | AE Insomnia, n subjects ([1]; human, in vivo, 48 weeks): 4 | AE Lymphadenopathy, n subjects ([1]; human, in vivo, 48 weeks): 4 | AE Nasopharyngitis, n subjects ([1]; human, in vivo, 48 weeks): 1 | AE Nausea, n subjects ([1]; human, in vivo, 48 weeks): 6 | AE Rash, n subjects ([1]; human, in vivo, 48 weeks): 5 | AE Syphilis, n subjects ([1]; human, in vivo, 48 weeks): 3 | AE Upper respiratory tract infection, n subjects ([1]; human, in vivo, 48 weeks): 2 | AE leading to discontinuation: Abnormal dreams, n subjects ([1]; human, in vivo, 48 weeks): 1 | AE leading to discontinuation: Aggression, n subjects ([1]; human, in vivo, 48 weeks): 0 | AE leading to discontinuation: Anxiety, n subjects ([1]; human, in vivo, 48 weeks): 1 | AE leading to discontinuation: Depression, n subjects ([1]; human, in vivo, 48 weeks): 1 | AE leading to discontinuation: Dermatitis allergic, n subjects ([1]; human, in vivo, 48 weeks): 1 | AE leading to discontinuation: Disturbance in attention, n subjects ([1]; human, in vivo, 48 weeks): 1 | AE leading to discontinuation: Dizziness, n subjects ([1]; human, in vivo, 48 weeks): 2 | AE leading to discontinuation: Ear and labyrinth disorders, n subjects ([1]; human, in vivo, 48 weeks): 1 | AE leading to discontinuation: Eye disorders, n subjects ([1]; human, in vivo, 48 weeks): 1 | AE leading to discontinuation: Gastrointestinal disorders, n subjects ([1]; human, in vivo, 48 weeks): 1 | AE leading to discontinuation: General disorders and administration site conditions, n subjects ([1]; human, in vivo, 48 weeks): 0 | AE leading to discontinuation: Hypoaesthesia, n subjects ([1]; human, in vivo, 48 weeks): 1 | AE leading to discontinuation: Insomnia, n subjects ([1]; human, in vivo, 48 weeks): 3 | AE leading to discontinuation: Malaise, n subjects ([1]; human, in vivo, 48 weeks): 0 | AE leading to discontinuation: Musculoskeletal and connective tissue disorders, n subjects ([1]; human, in vivo, 48 weeks): 1 | AE leading to discontinuation: Musculoskeletal discomfort, n subjects ([1]; human, in vivo, 48 weeks): 1 | AE leading to discontinuation: Nausea, n subjects ([1]; human, in vivo, 48 weeks): 1 | AE leading to discontinuation: Nervous system disorders, n subjects ([1]; human, in vivo, 48 weeks): 4 | AE leading to discontinuation: Photophobia, n subjects ([1]; human, in vivo, 48 weeks): 1 | AE leading to discontinuation: Psychiatric disorders, n subjects ([1]; human, in vivo, 48 weeks): 3 | AE leading to discontinuation: Rash, n subjects ([1]; human, in vivo, 48 weeks): 1 | AE leading to discontinuation: Skin and subcutaneous tissue disorders, n subjects ([1]; human, in vivo, 48 weeks): 2 | AE leading to discontinuation: Tachyphrenia, n subjects ([1]; human, in vivo, 48 weeks): 1 | AE leading to discontinuation: Thinking abnormal, n subjects ([1]; human, in vivo, 48 weeks): 0 | AE leading to discontinuation: Tinnitus, n subjects ([1]; human, in vivo, 48 weeks): 1 | Any AE leading to discontinuation of study drug, n subjects ([1]; human, in vivo, 48 weeks): 6 | Any AE, n subjects ([1]; human, in vivo, 48 weeks): 27 | Any Grade 3 AE, n subjects ([1]; human, in vivo, 48 weeks): 3 | Any Grade 4 AE, n subjects ([1]; human, in vivo, 48 weeks): 1 | Any SAE, n subjects ([1]; human, in vivo, 48 weeks): 1 | Grade 3 or 4 AE: Abdominal pain, n subjects ([1]; human, in vivo, 48 weeks): 0 | Grade 3 or 4 AE: Blindness unilateral, n subjects ([1]; human, in vivo, 48 weeks): 0 | Grade 3 or 4 AE: Corneal infection, n subjects ([1]; human, in vivo, 48 weeks): 0 | Grade 3 or 4 AE: Dermatitis allergic, n subjects ([1]; human, in vivo, 48 weeks): 1 | Grade 3 or 4 AE: Eye disorders, n subjects ([1]; human, in vivo, 48 weeks): 0 | Grade 3 or 4 AE: Gastrointestinal disorders, n subjects ([1]; human, in vivo, 48 weeks): 0 | Grade 3 or 4 AE: General disorders and administration site conditions, n subjects ([1]; human, in vivo, 48 weeks): 0 | Grade 3 or 4 AE: Infections and infestations, n subjects ([1]; human, in vivo, 48 weeks): 0 | Grade 3 or 4 AE: Pyrexia, n subjects ([1]; human, in vivo, 48 weeks): 0 | Grade 3 or 4 AE: Skin and subcutaneous tissue disorders, n subjects ([1]; human, in vivo, 48 weeks): 1 | Grade 3 or 4 AE: Tinnitus, n subjects ([1]; human, in vivo, 48 weeks): 1 | SAE: Blindness unilateral, n subjects ([1]; human, in vivo, 48 weeks): 0 | SAE: Corneal infection, n subjects ([1]; human, in vivo, 48 weeks): 0 | SAE: Depression, n subjects ([1]; human, in vivo, 48 weeks): 1 | SAE: Eye disorders, n subjects ([1]; human, in vivo, 48 weeks): 0 | SAE: Gastroenteritis, n subjects ([1]; human, in vivo, 48 weeks): 0 | SAE: Infections and infestations, n subjects ([1]; human, in vivo, 48 weeks): 0 | SAE: Psychiatric disorders, n subjects ([1]; human, in vivo, 48 weeks): 1 | Subjects who experienced a Grade ≥3 AE ([1]; human, in vivo, 48 weeks): 15% | HR Abnormally high, n subjects [2]: 0 | HR Abnormally low, n subjects [2]: 0 | PR Abnormally high, n subjects [2]: 1 | QRS Abnormally high, n subjects [2]: 0 | QRS Abnormally low, n subjects [2]: 0 | QTcB interval Borderline (450-480 ms), n subjects [2]: 3 | QTcB interval Increase by >30-60 ms, n subjects [2]: 4 | QTcB interval Increase by >60 ms, n subjects [2]: 0 | QTcB interval Pathologically prolonged, n subjects [2]: 0 | QTcB interval Prolonged, n subjects [2]: 0 | QTcF interval Borderline (450-480 ms), n subjects [2]: 0 | QTcF interval Increase by >30-60 ms, n subjects [2]: 4 | QTcF interval Increase by >60 ms, n subjects [2]: 0 | QTcF interval Pathologically prolonged, n subjects [2]: 0 | QTcF interval Prolonged, n subjects [2]: 0
